Reference: patent US20100210602A1, “PhoU (PerF), A P[…] INVOLVED IN [sequence] FORMATION AND TOLERANCE TO MULTIPLE ANTIBIOTICS AND [sequence] AS A DRUG TARGET FOR [sequence] BACTERIA” (priority 2006, published 2010)
In brackets after ≈: the same amount, converted by molar mass.

How the values were obtained:
wild type strain W3110 = assay: microbe, parasite or virus in culture; type: cell-based, E. coli; conditions: Escherichia coli, W3110, 16 h
PhoU mutant (JHU-313) = assay: MIC/MBC by serial two-fold dilutions in LB broth; type: cell-based, E. coli; conditions: Escherichia coli, 16 h at 37° C.
JHU-313 containing pPhoU [1] = assay: MIC/MBC by serial two-fold dilutions in LB broth; type: cell-based, E. coli; conditions: Escherichia coli, 16 h at 37° C.
[2] = test system: JHU-313 containing pVector; assay: MIC/MBC by serial two-fold dilutions in LB broth; type: cell-based, E. coli; conditions: Escherichia coli, 16 h at 37° C.
W3110 = assay: microbe, parasite or virus in culture; conditions: Escherichia coli, read-out: zone inhibition
JHU-313 = assay: Kirby-Bauer paper disc assay, zone inhibition; conditions: Escherichia coli, read-out: zone inhibition
JHU-313 containing pPhoU [3] = assay: Kirby-Bauer paper disc assay, zone inhibition; conditions: Escherichia coli, read-out: zone inhibition
[4] = test system: JHU-313 containing pVector; assay: Kirby-Bauer paper disc assay, zone inhibition; conditions: Escherichia coli, read-out: zone inhibition
PhoU = molecular target: T1, PhoU (Escherichia coli, UniProt P0A9K7); assay: PhoU phosphatase substrate specificity; type: biochemical, E. coli; conditions: pH5, pH7 and pH8
T1 construct: His; made in house
Method: Different substrates for the PhoU phosphatase activity were tested. […] For PhoU, the substrates acetyl-P, carbamoyl-P, imido-di phosphate (imido-di-P), r-nitrophenyl phosphate (rNPP), β-Nicotinamide adenine dinucleotide phosphate (NADP), Glucose-1,6-bisphosphate (Glucose-1,6-bisP) were tested at pH5, pH7, and pH8 condition, as potential PhoU phosphatase activity.

T1 sequence (P0A9K7 whole entry): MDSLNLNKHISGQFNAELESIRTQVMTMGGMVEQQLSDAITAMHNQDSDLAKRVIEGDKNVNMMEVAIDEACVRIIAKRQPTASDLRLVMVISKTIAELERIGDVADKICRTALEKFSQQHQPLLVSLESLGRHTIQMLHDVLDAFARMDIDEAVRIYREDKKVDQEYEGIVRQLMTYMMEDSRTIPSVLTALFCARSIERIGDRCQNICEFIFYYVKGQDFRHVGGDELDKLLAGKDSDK

With `COc1cc(Cc2cnc(N)nc2N)cc(OC)c1OC` [Trimethoprim, trimethoprim] the MBC (wild type strain W3110) was 8 µg/mL (≈ 27.6 µM), the MIC (wild type strain W3110) was 2 µg/mL (≈ 6.89 µM) and the MBC (PhoU mutant (JHU-313); read-out: MBC) was 1 µg/mL (≈ 3.44 µM). The MIC (PhoU mutant (JHU-313); read-out: MIC) was 0.25 µg/mL (≈ 0.861 µM), the MBC (JHU-313 containing pPhoU [1]; read-out: MBC) was 4 µg/mL (≈ 13.8 µM) and the MIC (JHU-313 containing pPhoU [1]; read-out: MIC) was 2 µg/mL (≈ 6.89 µM). It also gave an MBC ([2]; read-out: MBC) of 1 µg/mL (≈ 3.44 µM), an MIC ([2]; read-out: MIC) of 0.5 µg/mL (≈ 1.72 µM) and a zone of inhibition at 0.5 µg/mL (W3110) of 24 mm. The zone of inhibition at 1 µg/mL (W3110) was 26 mm, the zone of inhibition at 2 µg/mL (W3110) was 30 mm and the zone of inhibition at 0.5 µg/mL (JHU-313) was 31 mm. For the same compound, the zone of inhibition at 1 µg/mL (JHU-313) was 38 mm, the zone of inhibition at 2 µg/mL (JHU-313) was 42 mm and the zone of inhibition at 0.5 µg/mL (JHU-313 containing pPhoU [3]) was 32 mm. For the same compound, the zone of inhibition at 1 µg/mL (JHU-313 containing pPhoU [3]) was 33 mm, the zone of inhibition at 2 µg/mL (JHU-313 containing pPhoU [3]) was 36 mm and the zone of inhibition at 0.5 µg/mL [4] was 36 mm. It also gave a zone of inhibition at 1 µg/mL [4] of 40 mm and a zone of inhibition at 2 µg/mL [4] of 44 mm.

In the case of `CC(=O)OP(=O)(O)O` [acetyl-P, acetyl phosphate], the “rank as PhoU phosphatase substrate” value (PhoU) is reported as “acetyl-P>rNPP>carbamoyl-P>Glucose-1,6-bisP>NADP”.

With `NC(=O)OP(=O)(O)O` [carbamoyl-P, carbamoyl phosphate] the “rank as PhoU phosphatase substrate” value (PhoU) was “acetyl-P>rNPP>carbamoyl-P>Glucose-1,6-bisP>NADP”.

For `O=[N+]([O-])c1ccc(OP(=O)(O)O)cc1` [rNPP, r-nitrophenyl phosphate], the “rank as PhoU phosphatase substrate” value (PhoU) was “acetyl-P>rNPP>carbamoyl-P>Glucose-1,6-bisP>NADP”.

In the case of “β-Nicotinamide adenine dinucleotide phosphate [NADP]”, the “rank as PhoU phosphatase substrate” value (PhoU) is reported as “acetyl-P>rNPP>carbamoyl-P>Glucose-1,6-bisP>NADP”.
